The assay addresses T1, truncated Itk (Homo sapiens, UniProt Q08881).
T1 construct: fused on or other part: added start methionine
T1 sequence (Q08881 171-615 limits assumed): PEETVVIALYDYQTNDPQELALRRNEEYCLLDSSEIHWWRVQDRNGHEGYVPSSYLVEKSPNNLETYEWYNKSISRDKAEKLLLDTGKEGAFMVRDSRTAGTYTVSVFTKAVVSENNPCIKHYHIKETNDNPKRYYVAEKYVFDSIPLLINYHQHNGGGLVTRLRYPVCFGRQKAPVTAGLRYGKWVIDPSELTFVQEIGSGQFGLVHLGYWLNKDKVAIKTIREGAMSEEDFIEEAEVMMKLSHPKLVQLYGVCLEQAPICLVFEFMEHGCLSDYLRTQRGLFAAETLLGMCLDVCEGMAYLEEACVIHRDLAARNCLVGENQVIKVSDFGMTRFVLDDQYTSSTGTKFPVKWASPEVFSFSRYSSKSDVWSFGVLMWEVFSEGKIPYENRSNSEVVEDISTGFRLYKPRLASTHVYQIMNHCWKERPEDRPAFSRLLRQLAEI
Put plainly: Truncated Itk kinase assay (HTRF). The assay is classed as biochemical. Particulars: UK:ITK, 0.05 mM ATP, 15 min pre-incubation. The protocol: The 100 000 g supernatant was stored at −85° C. Stored lysates were thawed on ice, ATP and MgCl2 (0.1 mM and 10 mM) were added. Following incubation on ice the kinase was diluted in 40 mM HEPES (pH 7.4). The kinase reaction mixture contained 40 mM HEPES (pH 7.4). 10 mM MgCl2, 0.05 mM ATP, 0.0005 mM peptide (Biotin-[…]). The reaction was stopped by the addition of EDTA (25 mM). […] An increase in the level of fluorescence indicates an increase in kinase activity.
Compound Testing in Kinase Assay
Substrates (ATP, src-peptide) added
Reaction stopped with EDTA
HTRF reagents (APC, Eu labelled antibody (antiPY antibody)) added
Read signal on plate reader
(In general: Time-resolved FRET reads energy transfer from a long-lived donor to a nearby acceptor.)

Where [1] appears, read: PIC50 is -log10 IC50 in molar, read-out: Average PIC50 (converted).

The structures appear in SMILES notation. Where two headings read alike, the source gives them in different places.

In the case of `CNc1ccc(-c2cc(=O)c3c(O)cc(O)cc3o2)cc1`, the IC50 is 0.813 µM (read-out: Average IC50) and 0.813 µM under setting [1].

In the case of `O=c1c(O)c(-c2cc(O)c(O)c(O)c2)oc2cc(O)cc(O)c12`, the IC50 by setting is: (read-out: Average IC50) 1.66 µM; under setting [1], 1.66 µM.
